# Laboratory results published in PubChem BioAssay (NCI).
#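 Cells were grown in 96-well plates and exposed to each compound for 48 hours at five concentrations; endpoints were interpolated linearly between bracketing concentrations, or set to the highest concentration if not reached. GI50 marks 50% less growth. The concentration for full growth arrest is given as TGI.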
# How the values were obtained:
# Assay in all cases: NCI tumour cell line growth inhibition, 48 h
# NCI-H23 lung = test system: NCI-H23 lung
# NCI-H460 lung = test system: NCI-H460 lung
# NCI-H522 lung = test system: NCI-H522 lung
# NCI/ADR-RES ovarian = test system: NCI/ADR-RES ovarian
# OVCAR-3 ovarian = test system: OVCAR-3 ovarian
# OVCAR-4 ovarian = test system: OVCAR-4 ovarian
# OVCAR-5 ovarian = test system: OVCAR-5 ovarian
# OVCAR-8 ovarian = test system: OVCAR-8 ovarian
# PC-3 prostate = test system: PC-3 prostate
# RPMI-8226 leukemia = test system: RPMI-8226 leukemia
# RXF 393 renal = test system: RXF 393 renal
# SF-268 CNS = test system: SF-268 CNS
# SF-295 CNS = test system: SF-295 CNS
# SF-539 CNS = test system: SF-539 CNS
# SK-MEL-2 melanoma = test system: SK-MEL-2 melanoma
# SK-MEL-28 melanoma = test system: SK-MEL-28 melanoma
# SK-MEL-5 melanoma = test system: SK-MEL-5 melanoma
# SK-OV-3 ovarian = test system: SK-OV-3 ovarian
# SN12C renal = test system: SN12C renal
# SNB-19 CNS = test system: SNB-19 CNS
# SNB-75 CNS = test system: SNB-75 CNS
# SR leukemia = test system: SR leukemia
# SW-620 colon = test system: SW-620 colon
# T-47D breast = test system: T-47D breast
# TK-10 renal = test system: TK-10 renal
# U251 CNS = test system: U251 CNS
# UACC-257 melanoma = test system: UACC-257 melanoma
# UACC-62 melanoma = test system: UACC-62 melanoma
# UO-31 renal = test system: UO-31 renal
compound,measurement,setting,value
CN1CCN(Cc2ccc(NC(=O)c3cncc(C#Cc4c(N)ncc5ccccc45)c3)cc2C(F)(F)F)CC1,TGI,NCI-H23 lung,1460 nM
same,GI50,NCI-H460 lung,344 nM
same,TGI,NCI-H460 lung,1040 nM
same,GI50,NCI-H522 lung,681 nM
same,TGI,NCI-H522 lung,1530 nM
same,GI50,NCI/ADR-RES ovarian,945 nM
same,TGI,NCI/ADR-RES ovarian,2210 nM
same,GI50,OVCAR-3 ovarian,817 nM
same,TGI,OVCAR-3 ovarian,1530 nM
same,GI50,OVCAR-4 ovarian,309 nM
same,TGI,OVCAR-4 ovarian,1100 nM
same,GI50,OVCAR-5 ovarian,658 nM
same,TGI,OVCAR-5 ovarian,1450 nM
same,GI50,OVCAR-8 ovarian,839 nM
same,TGI,OVCAR-8 ovarian,1910 nM
same,GI50,PC-3 prostate,687 nM
same,TGI,PC-3 prostate,1730 nM
same,GI50,RPMI-8226 leukemia,835 nM
same,TGI,RPMI-8226 leukemia,2360 nM
same,GI50,RXF 393 renal,708 nM
same,TGI,RXF 393 renal,1390 nM
same,GI50,SF-268 CNS,723 nM
same,TGI,SF-268 CNS,1560 nM
same,GI50,SF-295 CNS,786 nM
same,TGI,SF-295 CNS,1570 nM
same,GI50,SF-539 CNS,532 nM
same,TGI,SF-539 CNS,1130 nM
same,GI50,SK-MEL-2 melanoma,782 nM
same,TGI,SK-MEL-2 melanoma,1720 nM
same,GI50,SK-MEL-28 melanoma,767 nM
same,TGI,SK-MEL-28 melanoma,1480 nM
same,GI50,SK-MEL-5 melanoma,719 nM
same,TGI,SK-MEL-5 melanoma,1380 nM
same,GI50,SK-OV-3 ovarian,1130 nM
same,TGI,SK-OV-3 ovarian,2010 nM
same,GI50,SN12C renal,627 nM
same,TGI,SN12C renal,1310 nM
same,GI50,SNB-19 CNS,924 nM
same,TGI,SNB-19 CNS,1760 nM
same,GI50,SNB-75 CNS,872 nM
same,TGI,SNB-75 CNS,1610 nM
same,GI50,SR leukemia,259 nM
same,TGI,SR leukemia,3700 nM
same,GI50,SW-620 colon,185 nM
same,TGI,SW-620 colon,720 nM
same,GI50,T-47D breast,831 nM
same,TGI,T-47D breast,1660 nM
same,GI50,TK-10 renal,919 nM
same,TGI,TK-10 renal,1660 nM
same,GI50,U251 CNS,686 nM
same,TGI,U251 CNS,1410 nM
same,GI50,UACC-257 melanoma,773 nM
same,TGI,UACC-257 melanoma,1600 nM
same,GI50,UACC-62 melanoma,791 nM
same,TGI,UACC-62 melanoma,1550 nM
same,GI50,UO-31 renal,541 nM
same,TGI,UO-31 renal,1160 nM
